Experimental data as given in ChEMBL document CHEMBL4342422, “Synthetic strategy and SAR studies of C-glucoside heteroaryls as SGLT2 inhibitor: A review” (Eur J Med Chem, 2019).
Values belong to the compound of their own block, whether it stands above or below them.

Experiments:
Homo sapiens [1] = experiment: Antidiabetic activity in human T2DM patients assessed as reduction in HbA1c level at 10 mg, po relative to control; assay type: functional; parameters: scale not given: the % may be the effect or the level left
Homo sapiens [2] = experiment: Antidiabetic activity in human T2DM patients assessed as reduction in HbA1c level at 25 mg, po relative to control; assay type: functional; parameters: scale not given: the % may be the effect or the level left
Homo sapiens [3] = experiment: Antidiabetic activity in human T2DM patients assessed as reduction in body weight at 10 to 25 mg, po; assay type: functional
[4] = Toxicity in human T2DM patients assessed as reduction in systolic blood pressure at 25 mg, po; conditions: in vivo
[5] = Toxicity in human T2DM patients assessed as reduction in diastolic blood pressure at 25 mg, po; conditions: in vivo
[6] = Half life in human; assay type: ADME
[7] = Tmax in human at 5 mg, po; assay type: ADME; conditions: in vivo
Homo sapiens [8] = experiment: Antidiabetic activity in human T2DM patients assessed as reduction in HbA1c level at 25 mg, po for 12 weeks relative to control; assay type: functional; parameters: scale not given: the % may be the effect or the level left
[9] = Toxicity in human T2DM patients assessed as reduction in systolic blood pressure at 5 mg, po for 4 weeks; assay type: organism-based; conditions: in vivo, 672 h
[10] = Toxicity in human T2DM patients assessed as reduction in systolic blood pressure at 10 mg, po for 4 weeks; assay type: organism-based; conditions: in vivo, 672 h
Homo sapiens [11] = experiment: Antidiabetic activity in human T2DM patients assessed as reduction in HbA1c level at 50 mg, po for 24 weeks relative to control; assay type: functional; parameters: scale not given: the % may be the effect or the level left
Homo sapiens [12] = experiment: Antidiabetic activity in human T2DM patients assessed as fasting blood glucose level at 50 mg, po for 24 weeks; assay type: functional
Homo sapiens [13] = experiment: Antidiabetic activity in human T2DM patients assessed as reduction in body weight at 50 mg, po for 24 weeks; assay type: functional
[14] = Elimination half life in human at 1 to 25 mg, po; assay type: ADME; conditions: in vivo, read-out: LambdaZ
[15] = Toxicity in human assessed as urinary tract infection at 200 to 400 mg, po for 52 weeks; assay type: organism-based; conditions: in vivo, 8736 h
Homo sapiens [16] = experiment: Antidiabetic activity in human T2DM patients assessed as reduction in HbA1c level at 20 mg, po for 24 weeks relative to control; assay type: functional; parameters: scale not given: the % may be the effect or the level left
Homo sapiens [17] = experiment: Antidiabetic activity in human T2DM patients assessed as reduction in body weight at 20 mg, po for 24 weeks; assay type: functional
[18] = Toxicity in human T2DM patients assessed as reduction in blood pressure at 20 mg, po for 24 weeks; assay type: organism-based; conditions: in vivo, 4032 h

Structure (SMILES): OC[C@H]1O[C@@H](c2ccc(F)c(Cc3cc4ccccc4s3)c2)[C@H](O)[C@@H](O)[C@@H]1O [IPRAGLIFLOZIN]
Activity (Homo sapiens [11]): 0.79%
Activity (Homo sapiens [12]): 32.89 mg/dL
Activity (Homo sapiens [13]): 1.1 kg

Structure (SMILES): CCOc1ccc(Cc2cc([C@@H]3O[C@H](SC)[C@@H](O)[C@H](O)[C@H]3O)ccc2Cl)cc1 [SOTAGLIFLOZIN]
Activity [15]: 4.2 to 6.9%

Structure (SMILES): CCc1ccc(Cc2ccc3c(c2)[C@]2(OC3)O[C@H](CO)[C@@H](O)[C@H](O)[C@H]2O)cc1 [TOFOGLIFLOZIN ANHYDROUS]
Activity (Homo sapiens [16]): 1.017%
Activity (Homo sapiens [17]): 2.9 kg
Activity [18]: 2.1 mmHg

Second part, led by results:

half-life [6]: 1 h
Structure (SMILES): OC[C@H]1O[C@@H](c2ccc(Cl)c(Cc3ccc(O[C@@H]4CCOC4)cc3)c2)[C@H](O)[C@@H](O)[C@@H]1O
Activity (Homo sapiens [1]): 0.929%
Activity (Homo sapiens [2]): 1.064%
Activity (Homo sapiens [3]): 1.85 kg
Activity [4]: 4.19 mmHg
Activity [5]: -1.04 mmHg

Tmax [7]: 1 h
Structure (SMILES): CCOc1ccc(Cc2cc([C@]34OC[C@](CO)(O3)[C@@H](O)[C@H](O)[C@H]4O)ccc2Cl)cc1 [ERTUGLIFLOZIN]
Activity (Homo sapiens [8]): -0.72%
Activity [9]: 2.59 to 2.86 mmHg
Activity [10]: 2.59 to 2.86 mmHg

half-life [14]: 9.2 to 13.8 h
Structure (SMILES): CCOc1ccc(Cc2cc([C@@H]3S[C@H](CO)[C@@H](O)[C@H](O)[C@H]3O)c(OC)cc2C)cc1 [LUSEOGLIFLOZIN]
